Experimental data: patent publication US9688710B2, “Inhibitors of sodium glucose cotransporter 1” (LEXICON PHARMACEUTICALS, INC., priority 2012, dated 2017)

Columns and labels:
[1] = target: Human sodium/glucose co-transporter type 1 (SGLT1) (Homo sapiens (Human), UniProt P13866); test: In vitro human SGLT1 inhibition assay (14C-AMG uptake); assay type: cell-based; design: key to SGLT1 (human SGLT1 IC50): ***: a value less than 0.01 μM; **: a value less than 0.1 μM; *: a value less than 1 μM; —: a value not measured or exceeding μM; conditions: HEK293 cells expressing human HA-SGLT1, 14C-AMG uptake
Sequence of Human sodium/glucose co-transporter type 1 (SGLT1) (P13866 whole entry): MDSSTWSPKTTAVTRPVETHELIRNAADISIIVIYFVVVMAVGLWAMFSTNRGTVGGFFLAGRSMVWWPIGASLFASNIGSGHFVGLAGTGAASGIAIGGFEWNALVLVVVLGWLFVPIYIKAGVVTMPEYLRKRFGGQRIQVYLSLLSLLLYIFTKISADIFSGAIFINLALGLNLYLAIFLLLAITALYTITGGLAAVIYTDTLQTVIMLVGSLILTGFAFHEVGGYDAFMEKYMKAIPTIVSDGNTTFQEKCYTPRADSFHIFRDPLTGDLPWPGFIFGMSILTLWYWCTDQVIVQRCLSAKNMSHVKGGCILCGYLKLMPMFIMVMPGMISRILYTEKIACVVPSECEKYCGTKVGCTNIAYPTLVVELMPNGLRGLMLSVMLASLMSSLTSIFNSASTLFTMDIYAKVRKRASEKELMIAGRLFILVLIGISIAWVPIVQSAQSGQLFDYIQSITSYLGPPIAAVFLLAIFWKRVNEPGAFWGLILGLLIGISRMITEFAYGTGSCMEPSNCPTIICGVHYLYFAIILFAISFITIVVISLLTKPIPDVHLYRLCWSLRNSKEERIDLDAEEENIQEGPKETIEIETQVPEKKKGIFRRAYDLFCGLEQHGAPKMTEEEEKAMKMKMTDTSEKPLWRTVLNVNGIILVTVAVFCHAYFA
How it was run: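 Uptake of 14C-AMG (100 nCi) was measured by scintillation counting after 1–2 h at 37 °C, 5% CO2, with or without compound. The buffer was pH 7.3 with 140 mM NaCl, 1 mM CaCl2, 1 mM MgCl2 and 1 mg/mL BSA. Cells were a stable HEK293 line carrying HA-SGLT1 (human), plated overnight at 30,000 per well.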

[2] = target: Human sodium/glucose co-transporter type 2 (SGLT2) (Homo sapiens (Human), UniProt P31639); test: In vitro human SGLT2 inhibition assay (14C-AMG uptake); assay type: cell-based; design: key to SGLT2 (human SGLT2 IC50): ***: a value less than 0.01 μM; **: a value less than 0.1 μM; *: a value less than 1 μM; —: a value not measured or exceeding μM; conditions: HEK293 cells expressing human HA-SGLT2, 14C-AMG uptake
Sequence of Human sodium/glucose co-transporter type 2 (SGLT2) (P31639 whole entry): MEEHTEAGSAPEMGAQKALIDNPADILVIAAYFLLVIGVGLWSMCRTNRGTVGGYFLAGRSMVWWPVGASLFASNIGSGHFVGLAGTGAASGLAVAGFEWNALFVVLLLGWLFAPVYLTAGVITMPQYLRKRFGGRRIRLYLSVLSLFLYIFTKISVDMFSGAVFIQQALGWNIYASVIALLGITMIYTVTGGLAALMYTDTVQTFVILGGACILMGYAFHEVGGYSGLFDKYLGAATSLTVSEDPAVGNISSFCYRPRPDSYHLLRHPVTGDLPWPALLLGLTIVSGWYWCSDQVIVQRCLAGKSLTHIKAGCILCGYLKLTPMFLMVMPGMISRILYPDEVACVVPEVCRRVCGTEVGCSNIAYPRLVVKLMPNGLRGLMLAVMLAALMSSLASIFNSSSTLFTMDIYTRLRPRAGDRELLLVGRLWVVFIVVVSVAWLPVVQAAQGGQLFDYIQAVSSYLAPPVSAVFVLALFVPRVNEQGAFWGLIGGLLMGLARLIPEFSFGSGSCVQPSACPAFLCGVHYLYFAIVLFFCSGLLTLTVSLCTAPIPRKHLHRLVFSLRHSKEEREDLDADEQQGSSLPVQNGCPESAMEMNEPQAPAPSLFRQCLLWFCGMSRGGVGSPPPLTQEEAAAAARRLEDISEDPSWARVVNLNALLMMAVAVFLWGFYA
How it was run: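 Uptake of 14C-AMG (100 nCi) was followed in a stable HEK293 HA-SGLT2 line over 1-2 h at 37 °C with or without compound. Buffer: 140 mM NaCl, 10 mM HEPES, 5 mM Tris, 1 mg/mL BSA, pH 7.3. Readout was scintillation counting after washing.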

IC50 [1] [nM] | IC50 [2] [nM] | SGLT1 (human SGLT1 IC50) [1] | SGLT2 (human SGLT2 IC50) [2] | SMILES
< 10 | < 10 |  |  | CS[C@H]1O[C@@H](c2ccc(C)c(Cc3ccc(OCCCC(=O)NC4(C(=O)N5CCN(C)CC5)CCCC4)cc3)c2)[C@H](O)[C@@H](O)[C@@H]1O [4-(4-(2-methyl-5-((2S,3R,4R,5S,6R)-3,4,5-trihydroxy-6-(methylthio)tetrahydro-2H-pyran-2-yl)benzyl)phenoxy)-N-(1-(4-methylpiperazine-1-carbonyl)cyclopentyl)butanamide]
< 10 | < 10 |  |  | CS[C@H]1O[C@@H](c2ccc(C)c(Cc3ccc(CCCCN(CC(O)CO)CC(O)CO)cc3)c2)[C@H](O)[C@@H](O)[C@@H]1O (stereo partly drawn) [(2S,3R,4R,5S,6R)-2-(3-(4-(4-(bis(2,3-dihydroxypropyl)amino)butyl)benzyl)-4-methylphenyl)-6-(methylthio)tetrahydro-2H-pyran-3,4,5-triol]
< 100 | < 10 |  |  | CS[C@H]1O[C@@H](c2ccc(Cl)c(Cc3ccc(OCC(=O)NC(C)(C)C(N)=O)cc3)c2)[C@H](O)[C@@H](O)[C@@H]1O [2-(2-(4-(2-chloro-5-((2S,3R,4R,5S,6R)-3,4,5-trihydroxy-6-(methylthio)tetrahydro-2H-pyran-2-yl)benzyl)phenoxy)acetamido)-2-methylpropanamide]
< 100 | < 10 |  |  | CS[C@H]1O[C@@H](c2ccc(C)c(Cc3ccc(OCCCC(=O)N[C@@H](C)C(N)=O)cc3)c2)[C@H](O)[C@@H](O)[C@@H]1O [N-((S)-1-amino-1-oxopropan-2-yl)-4-(4-(2-methyl-5-((2S,3R,4R,5S,6R)-3,4,5-trihydroxy-6-(methylthio)tetrahydro-2H-pyran-2-yl)benzyl)phenoxy)butanamide]
< 100 | < 10 |  |  | CCOc1ccc(Cc2cc([C@@H]3O[C@H](SC)[C@@H](O)[C@H](O)[C@H]3O)ccc2C)cc1 [(2S,3R,4R,5S,6R)-2-(3-(4-ethoxybenzyl)-4-methylphenyl)-6-(methylthio)tetrahydro-2H-pyran-3,4,5-triol]
< 100 | < 10 |  |  | CS[C@H]1O[C@@H](c2ccc(C)c(Cc3ccc(OCC(=O)NCC(C)(C)C(N)=O)cc3)c2)[C@H](O)[C@@H](O)[C@@H]1O [2,2-dimethyl-3-(2-(4-(2-methyl-5-((2S,3R,4R,5S,6R)-3,4,5-trihydroxy-6-(methylthio)tetrahydro-2H-pyran-2-yl)benzyl)phenoxy)acetamido)propanamide]
< 100 | < 10 |  |  | CS[C@H]1O[C@@H](c2ccc(C)c(Cc3ccc(CCCCCN(C[C@H](O)CO)C[C@H](O)CO)cc3)c2)[C@H](O)[C@@H](O)[C@@H]1O [(2S,3R,4R,5S,6R)-2-(3-(4-(5-(bis((S)-2,3-dihydroxypropyl)amino)pentyl)benzyl)-4-methylphenyl)-6-(methylthio)tetrahydro-2H-pyran-3,4,5-triol]
< 100 | < 10 |  |  | CS[C@H]1O[C@@H](c2ccc(Cl)c(Cc3ccc(OCCN)cc3)c2)[C@H](O)[C@@H](O)[C@@H]1O [(2S,3R,4R,5S,6R)-2-(3-(4-(2-aminoethoxy)benzyl)-4-chlorophenyl-6-(methylthio)tetrahydro-2H-pyran-3,4,5-triol]
< 100 | < 10 |  |  | CS[C@H]1O[C@@H](c2ccc(C)c(Cc3ccc(CCCCNC(=O)NC(C)(C)CO)cc3)c2)[C@H](O)[C@@H](O)[C@@H]1O [1-(1-hydroxy-2-methylpropan-2-yl)-3-(4-(4-(2-methyl-5-((2S,3R,4R,5S,6R)-3,4,5-trihydroxy-6-(methylthio)tetrahydro-2H-pyran-2-yl)benzyl)phenyl)butyl)urea]
< 100 | < 10 |  |  | CS[C@H]1O[C@@H](c2ccc(Cl)c(Cc3ccc(OCC(=O)NCCCC[C@H](N)C(=O)O)cc3)c2)[C@H](O)[C@@H](O)[C@@H]1O [(S)-2-amino-6-(2-(4-(2-chloro-5-((2S,3R,4R,5S,6R)-3,4,5-trihydroxy-6-(methylthio)tetrahydro-2H-pyran-2-yl)benzyl)phenoxy)acetamido)hexanoic acid]
< 10 | < 10 |  |  | CS[C@H]1O[C@@H](c2ccc(Cl)c(Cc3ccc(OCCNC(=O)C(C)(C)CO)cc3)c2)[C@H](O)[C@@H](O)[C@@H]1O [N-(2-(4-(2-chloro-5-((2S,3R,4R,5S,6R)-3,4,5-trihydroxy-6-(methylthio)tetrahydro-2H-pyran-2-yl)benzyl)phenoxy)ethyl)-3-hydroxy-2,2-dimethylpropanamide]
< 100 | < 10 |  |  | CCN(CC)C(=O)CCCOc1ccc(Cc2cc([C@@H]3O[C@H](SC)[C@@H](O)[C@H](O)[C@H]3O)ccc2Cl)cc1 [4-(4-(2-chloro-5-((2S,3R,4R,5S,6R)-3,4,5-trihydroxy-6-(methylthio)tetrahydro-2H-pyran-2-yl)benzyl)phenoxy)-N,N-diethylbutanamide]
< 100 | < 10 |  |  | CS[C@H]1O[C@@H](c2ccc(Cl)c(Cc3ccc(OCCCC[C@H](N)C(=O)O)cc3)c2)[C@H](O)[C@@H](O)[C@@H]1O [(S)-2-amino-6-(4-(2-chloro-5-((2S,3R,4R,5S,6R)-3,4,5-trihydroxy-6-(methylthio)tetrahydro-2H-pyran-2-yl)benzyl)phenoxy)hexanoic acid]
 |  | — | — | COC(=O)CCCOc1ccc(Cc2cc([C@@H]3O[C@H](SC)[C@@H](O)[C@H](O)[C@H]3O)ccc2Cl)cc1 [methyl 4-(4-(2-chloro-5-((2S,3R,4R,5S,6R)-3,4,5-trihydroxy-6-(methylthio)tetrahydro-2H-pyran-2-yl)benzyl)phenoxy)butanoate]
< 10 | < 10 |  |  | CS[C@H]1O[C@@H](c2ccc(C)c(Cc3ccc(CCCC(=O)NC4(C(=O)N5CCN(C)CC5)CCCC4)cc3)c2)[C@H](O)[C@@H](O)[C@@H]1O [4-(4-(2-methyl-5-((2S,3R,4R,5S,6R)-3,4,5-trihydroxy-6-(methylthio)tetrahydro-2H-pyran-2-yl)benzyl)phenyl)-N-(1-(4-methylpiperazine-1-carbonyl)cyclopentyl)butanamide]
< 10 | < 10 |  |  | CS[C@H]1O[C@@H](c2ccc(C)c(Cc3ccc(OCCCC(=O)N[C@H](C)C(N)=O)cc3)c2)[C@H](O)[C@@H](O)[C@@H]1O [N-((R)-1-amino-1-oxopropan-2-yl)-4-(4-(2-methyl-5-((2S,3R,4R,5S,6R)-3,4,5-trihydroxy-6-(methylthio)tetrahydro-2H-pyran-2-yl)benzyl)phenoxy)butanamide]
< 10 | < 10 |  |  | CS[C@H]1O[C@@H](c2ccc(C)c(Cc3ccc(CCCCNC(=N)N)cc3)c2)[C@H](O)[C@@H](O)[C@@H]1O [1-(4-(4-(2-methyl-5-((2S,3R,4R,5S,6R)-3,4,5-trihydroxy-6-(methylthio)tetrahydro-2H-pyran-2-yl)benzyl)phenyl)butyl)guanidine]
< 10 | < 10 |  |  | CS[C@H]1O[C@@H](c2ccc(C)c(Cc3ccc(OCCNC(C)(C)CO)cc3)c2)[C@H](O)[C@@H](O)[C@@H]1O [(2S,3R,4R,5S,6R)-2-(3-(4-(2-((1-hydroxy-2-methylpropan-2-yl)amino)ethoxy)benzyl)-4-methylphenyl)-6-(methylthio)tetrahydro-2H-pyran-3,4,5-triol]
< 10 | < 10 |  |  | CS[C@H]1O[C@@H](c2ccc(C)c(Cc3ccc(OCCCNCC(C)(C)C(N)=O)cc3)c2)[C@H](O)[C@@H](O)[C@@H]1O [2,2-dimethyl-3-((3-(4-(2-methyl-5-((2S,3R,4R,5S,6R)-3,4,5-trihydroxy-6-(methylthio)tetrahydro-2H-pyran-2-yl)benzyl)phenoxy)propyl)-amino)propanamide]
< 100 | < 10 |  |  | CS[C@H]1O[C@@H](c2ccc(C)c(Cc3ccc(OCC(N)=O)cc3)c2)[C@H](O)[C@@H](O)[C@@H]1O [2-(4-(2-methyl-5-((2S,3R,4R,5S,6R)-3,4,5-trihydroxy-6-(methylthio)tetrahydro-2H-pyran-2-yl)benzyl)phenoxy)acetamide]
< 10 | < 10 |  |  | CS[C@H]1O[C@@H](c2ccc(C)c(Cc3ccc(/C=C/CCC(=O)NC(CO)(CO)CO)cc3)c2)[C@H](O)[C@@H](O)[C@@H]1O [(E)-N-(1,3-dihydroxy-2-(hydroxymethyl)propan-2-yl)-5-(4-(2-methyl-5-((2S,3R,4R,5S,6R)-3,4,5-trihydroxy-6-(methylthio)tetrahydro-2H-pyran-2-yl)benzyl)phenyl)pent-4-enamide]
< 100 | < 10 |  |  | CS[C@H]1O[C@@H](c2ccc(C)c(Cc3ccc(CCCC(=O)N4CCN(C)CC4)cc3)c2)[C@H](O)[C@@H](O)[C@@H]1O [4-(4-(2-methyl-5-((2S,3R,4R,5S,6R)-3,4,5-trihydroxy-6-(methylthio)tetrahydro-2H-pyran-2-yl)benzyl)phenyl)-1-(4-methylpiperazin-1-yl)butan-1-one]
< 100 | < 10 |  |  | CS[C@H]1O[C@@H](c2ccc(C)c(Cc3ccc(CCCCCCC(=O)NC(CO)(CO)CO)cc3)c2)[C@H](O)[C@@H](O)[C@@H]1O [N-(1,3-dihydroxy-2-(hydroxymethyl)propan-2-yl)-7-(4-(2-methyl-5-((2S,3R,4R,5S,6R)-3,4,5-trihydroxy-6-(methylthio)tetrahydro-2H-pyran-2-yl)benzyl)phenyl)heptanamide]
